Laboratory results reported in patent US20050063956A1, “Method and device for attracting insects” (Colorado State University Research Foundation, priority 1998, published 2005).
Where “and” joins values, the source holds several entries; their conditions need not be identical. Identical values can stand only once. Entries after “also recorded” stand apart in the source; their conditions may differ.

What was measured:
wireworm larvae = settings: in vivo; cited from earlier work
[1] = tested on: western corn root worm larvae; assay: Glass bead Y-tube choice-test bioassay (Example 18); format: in vivo, Diabrotica virgifera virgifera LeConte; settings: for CO2 selective response, choice between two concentrations: base 1, 2, 5, 10, 20 mmol/mol
Protocol: Bioassay Apparatus. The choice-test bioassay apparatus (FIG. 34) was constructed from a glass Y-tube filled with glass beads to simulate the thigmotactic cues of the soil environment that are ordinarily encountered by western corn root worm larvae. The glass Y-tube was fabricated by a local glassblower (9.5 mm inside diameter, 60° angles, with each branch 3 cm long), and clamped to a ring stand with 2 branches of the “Y” facing down. A glass connection tube (4 cm long, 0.5 cm diameter) with a piece of vinyl screen (2.5-mm mesh) held over 1 end by a 0.5-cm section of Teflon tubing (6 mm inside diameter) was inserted snugly into the end of each of the arms of the Y-tube to support the glass beads. Glass beads (3 mm, cat. no. 11-312A, Fisher Scientific, Pittsburgh, Pa.) were poured into the top of the Y-tube, filling the entire apparatus to within 0.5 cm of the top (250 beads). A 5-mm NMR tube cap (cat. no. 100-0050, Drummond Scientific, Broomall, Pa.) was fitted into the other end of each glass connection tube, with a hole to allow snug insertion of a 20-cm piece of slender Teflon tubing (0.8 mm inside diameter) for introduction of volatile chemical cues into each arm of the bioassay apparatus. Two techniques were used to introduce candidate chemical cues into the 2 arms of the apparatus: 1 used shell vials as chemical sources, and the other used syringes as chemical sources.
Shell Vial Sources. In this 1st approach (FIG. 34), two 35-ml polyethylene syringes (cat. no. 106-0490, Sherwood Medical, St. Louis, Mo.) were filled with ambient air, and the air was pumped through shell vials containing candidate chemical cues. Glass shell vials (4 ml) with polyethylene caps were used (cat. no. B7785-1, Baxter Healthcare, McGaw Park, Ill.). A 35-ml syringe was snugly connected with slender Teflon tubing (20 cm) to a hole in the cap of the shell vial. A 2nd piece of slender Teflon tubing was used to connect the shell vial to 1 arm of the bioassay apparatus. The 2 syringes used for each bioassay were connected to a syringe pump (Sage Model 355, Fisher Scientific, Pittsburgh, Pa.) that provided an airflow through each shell vial containing a candidate chemical treatment, and subsequently into a choice arm of the bioassay apparatus. For the shell vial sources of candidate chemical compounds, the shell vial containing either a carbonated water dilution or a corn seed or cut corn roots was left open for 5 min to allow the gas concentrations to reach equilibrium. The vial was capped, and the syringe pump was started, providing an airflow of 1.0 ml/min from each syringe.
Syringe Sources. In this 2nd approach (FIG. 39), 35-ml polyethylene syringes were filled directly with candidate chemical cues (such as the headspace from a container of germinating corn, a sample of CO2 mixed with air, or the headspace from a bottle of carbonated water). Each of the 2 syringes was connected with slender Teflon tubing to 1 arm of the bioassay apparatus. The 2 syringes used for each bioassay were connected to a syringe pump that was adjusted to provide an airflow of 1 ml/min from each syringe.
Bioassay Procedure. For bioassays, 20 newly hatched 1st instars (0-12 hours old) were collected from tubs containing eggs in soil (by using a camel's hair brush) and placed in a covered 5-mm NMR cap with 2 holes (1 mm diameter) drilled in the bottom (FIGS. 34 and 39). These holes were temporarily plugged with a piece of wire bent into a U-shape. The open end of the NMR cap was sealed with a small square of cellophane held in place with a plastic tube (a piece of soda straw) that fit snugly over the open end. The Y-tube apparatus was assembled and filled with glass beads and the appropriate treatment and control sources (shell vials or syringes) were connected to the arms of the Y-tube. The syringe pump was set to provide a flow of 1 ml/min and turned on. […]

time to recover normal movement ([1]; after removal from apparatus, 300 or 900 mmol/mol CO2): 5 to 10 min
Structure (SMILES): O=C=O [CO2, carbon dioxide]
smallest CO2 difference responded to (wireworm larvae): 0.02% | CO2 selective response, equal amounts of CO2 on both sides ([1]; 1, 2, 5, 10, or 20 mmol/mol both sides): no significant differences in attraction were observed | larval attraction at high CO2 ([1]; 300 or 900 mmol/mol CO2): not attracted | toxic symptoms of larvae at high CO2 ([1]; 300 or 900 mmol/mol CO2): exhibited toxic symptoms; also recorded: lethargic when removed from the apparatus | smallest difference between the 2 choices still attractive ([1]; base 1 mmol/mol): 0.125 mmol/mol | CO2 selective response, choice between two concentrations ([1]; difference 0.125 mmol/mol): significantly greater attraction was observed to 1.125 mmol/mol than to 1 mmol/mol; also recorded: no difference in attraction was observed in any of the tests at higher concentrations | CO2 selective response, choice between two concentrations ([1]; difference 0.25 mmol/mol): more attracted to the higher CO2 concentration for 1 versus 1.25 mmol/mol (FIG. 48), and for 2 versus 2.25 mmol/mol; also recorded: no difference in attraction was observed for 5 versus 5.25 mmol/mol (FIG. 50), for 10 versus 10.25 (FIG. 51) mmol/mol, or for 20 versus 20.25 mmol/mol | CO2 selective response, choice between two concentrations ([1]; difference 0.50 mmol/mol): no difference in attraction was observed for 20 versus 20.50 mmol/mol | excess of CO2 concentration over control at which larvae were first attracted ([1]; selective response experiments): 12.5% | highest concentration of CO2 to which the larvae were attracted ([1]; versus ambient air control): 100 mmol/mol and 85.60±1.20 mmol/mol | lowest concentration of CO2 attractive to the larvae ([1]; versus ambient air control (0.91-0.99 mmol/mol)): 1.125±0.04 mmol/mol
